Measurements reported in publication PMC4457528, “Identification of Novel Small Molecule Inhibitors of Oncogenic RET Kinase” (PLoS ONE, 2015).

Key:
KinomeScan kinase panel = target: T1, KinomeScan kinase panel (Homo sapiens, UniProt Q8N568); test: KinomeScan kinase panel, single concentration 10 µM; format: binding; details: DCAMKL2, 10 µM; read-out: score (%)
T1 construct: purchased DiscoveRx (KinomeScan)

MZ-CRC-1 cells = test: Growth curves, MZ-CRC-1 medullary thyroid carcinoma cells (RET/M918T); format: cell-based; details: Homo sapiens, 10% serum, 95% CI in brackets, read-out: Growth inhibition IC50 dose MZ-CRC-1
Method: (§1) TT human cell line was obtained in 2002 from ATCC and authenticated by RET genotyping; it was derived from a MTC and harbors a cysteine 634 to tryptophan (C634W) RET mutation. TT cells were grown in RPMI 1640 supplemented with 20% fetal calf serum (GIBCO). MZ-CRC-1 human cells were kindly provided in 2009 by Robert F. Gagel (MD Anderson, Houston, TX) and authenticated by RET genotyping. […] Nthy-ori 3–1, a human thyroid follicular epithelial cell line immortalized by the SV40 large T gene, was obtained from European Collection of Cell Cultures (ECACC) (Wiltshire, UK) in 2010.
(§2) To compare cell growth, we performed unpaired Student’s t test using the Instat software program (Graphpad Software Inc). P values were two-sided, and differences were considered statistically significant at P <.02. IC50 doses were calculated through a curve fitting analysis from last day values using the PRISM software program (Graphpad Software Inc).

TT cells = test: Growth curves, TT medullary thyroid carcinoma cells (RET/C634W); format: cell-based; details: Homo sapiens, 20% serum, 95% CI in brackets, read-out: Growth inhibition IC50 dose TT
Method: as §1, §2

VEGFRII = target: T2, VEGFRII (Homo sapiens, UniProt P35968); test: Western blot of VEGFRII phosphorylation in TT cells; format: cell-based; details: 2 hr, Western blotting
T2 construct: endogenous in cells; host or cells: TT human medullary thyroid carcinoma cells
T2 sequence (P35968 20-1356): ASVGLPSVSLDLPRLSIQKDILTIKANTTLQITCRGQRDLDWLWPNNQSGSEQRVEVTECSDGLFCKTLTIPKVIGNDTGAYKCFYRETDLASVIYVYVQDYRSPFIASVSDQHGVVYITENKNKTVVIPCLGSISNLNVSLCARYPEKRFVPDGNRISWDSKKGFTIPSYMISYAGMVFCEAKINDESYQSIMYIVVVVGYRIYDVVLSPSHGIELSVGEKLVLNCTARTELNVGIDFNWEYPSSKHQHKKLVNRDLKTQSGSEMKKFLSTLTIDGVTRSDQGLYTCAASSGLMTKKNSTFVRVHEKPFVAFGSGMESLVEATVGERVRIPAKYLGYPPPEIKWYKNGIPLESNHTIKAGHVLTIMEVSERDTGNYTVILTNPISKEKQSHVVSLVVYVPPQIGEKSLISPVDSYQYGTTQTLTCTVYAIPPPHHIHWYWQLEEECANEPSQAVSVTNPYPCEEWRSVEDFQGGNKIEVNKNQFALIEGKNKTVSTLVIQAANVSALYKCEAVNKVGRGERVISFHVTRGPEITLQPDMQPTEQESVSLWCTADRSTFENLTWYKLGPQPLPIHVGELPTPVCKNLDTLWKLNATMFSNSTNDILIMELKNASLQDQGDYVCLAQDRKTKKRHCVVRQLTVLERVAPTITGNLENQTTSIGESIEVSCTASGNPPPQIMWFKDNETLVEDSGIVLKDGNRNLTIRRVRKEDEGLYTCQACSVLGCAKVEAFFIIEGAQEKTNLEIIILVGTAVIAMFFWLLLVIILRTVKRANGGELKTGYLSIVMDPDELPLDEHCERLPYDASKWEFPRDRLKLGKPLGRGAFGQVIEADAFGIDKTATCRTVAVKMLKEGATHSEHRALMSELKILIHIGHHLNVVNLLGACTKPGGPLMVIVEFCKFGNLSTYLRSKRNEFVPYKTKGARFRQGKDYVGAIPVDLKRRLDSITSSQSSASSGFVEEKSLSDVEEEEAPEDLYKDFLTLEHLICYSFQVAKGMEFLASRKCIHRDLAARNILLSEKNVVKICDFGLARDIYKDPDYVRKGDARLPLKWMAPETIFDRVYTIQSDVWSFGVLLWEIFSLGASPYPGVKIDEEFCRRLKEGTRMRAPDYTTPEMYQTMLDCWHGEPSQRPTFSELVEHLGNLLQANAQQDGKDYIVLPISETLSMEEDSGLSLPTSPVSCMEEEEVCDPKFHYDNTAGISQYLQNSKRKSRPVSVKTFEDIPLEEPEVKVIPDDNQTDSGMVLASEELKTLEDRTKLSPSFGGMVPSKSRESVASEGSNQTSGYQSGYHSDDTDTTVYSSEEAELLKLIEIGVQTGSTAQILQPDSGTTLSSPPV
Method: (§3) Protein lysates were prepared according to standard procedures. Briefly, cells were lysed in a buffer containing 50 mM N-2-hydroxyethylpiperazine-N'-2-ethanesulfonic acid (HEPES; pH 7.5), 1% (vol/vol) Triton X-100, 150 mM NaCl, 5 mM EGTA, 50 mM NaF, 20 mM sodium pyrophosphate, 1 mM sodium vanadate, 2 mM phenylmethylsulphonyl fluoride (PMSF) and 1 μg/ml aprotinin. Lysates were clarified by centrifugation at 10,000 Xg for 15 min. […] Immune complexes were detected with the enhanced chemiluminescence kit (Amersham Pharmacia Biotech, Little Chalfort, UK). Signal intensity was analyzed at the Phosphorimager (Typhoon 8600, Amersham Pharmacia Biotech) interfaced with the ImageQuant software. Anti-phospho-SHC (#07206), that recognizes SHC proteins when phosphorylated on Y317 was from Merck Millipore (Darmstadt, Germany). Anti-MAPK (#4695) and anti-phospho-MAPK (#4370), specific for p44/42MAPK (ERK1/2) phosphorylated on Thr202/Tyr204, anti-VEGFRII (#2479) and anti-phospho-VEGFRII (#2478), that recognizes VEGF Receptor 2 when phosphorylated on Y1175, were from Cell Signaling (Beverly, MA).
VEGFRII inhibition is believed to contribute, based on its anti-angiogenic effect, to clinical activity of approved RET inhibitors such as vandetanib and cabozantinib.
The blots were normalized using anti-VEGFRII (αVEGFRII) antibody. (JPG) Click here for additional data file.

wt RET = target: T3, wt RET (Homo sapiens, UniProt P07949); test: Invitrogen SelectScreen in vitro kinase assay, wt RET; format: biochemical; details: read-out: in vitro IC50 dose: RET
T3 construct: purchased Invitrogen (SelectScreen service)
T3 sequence (P07949 29-1114): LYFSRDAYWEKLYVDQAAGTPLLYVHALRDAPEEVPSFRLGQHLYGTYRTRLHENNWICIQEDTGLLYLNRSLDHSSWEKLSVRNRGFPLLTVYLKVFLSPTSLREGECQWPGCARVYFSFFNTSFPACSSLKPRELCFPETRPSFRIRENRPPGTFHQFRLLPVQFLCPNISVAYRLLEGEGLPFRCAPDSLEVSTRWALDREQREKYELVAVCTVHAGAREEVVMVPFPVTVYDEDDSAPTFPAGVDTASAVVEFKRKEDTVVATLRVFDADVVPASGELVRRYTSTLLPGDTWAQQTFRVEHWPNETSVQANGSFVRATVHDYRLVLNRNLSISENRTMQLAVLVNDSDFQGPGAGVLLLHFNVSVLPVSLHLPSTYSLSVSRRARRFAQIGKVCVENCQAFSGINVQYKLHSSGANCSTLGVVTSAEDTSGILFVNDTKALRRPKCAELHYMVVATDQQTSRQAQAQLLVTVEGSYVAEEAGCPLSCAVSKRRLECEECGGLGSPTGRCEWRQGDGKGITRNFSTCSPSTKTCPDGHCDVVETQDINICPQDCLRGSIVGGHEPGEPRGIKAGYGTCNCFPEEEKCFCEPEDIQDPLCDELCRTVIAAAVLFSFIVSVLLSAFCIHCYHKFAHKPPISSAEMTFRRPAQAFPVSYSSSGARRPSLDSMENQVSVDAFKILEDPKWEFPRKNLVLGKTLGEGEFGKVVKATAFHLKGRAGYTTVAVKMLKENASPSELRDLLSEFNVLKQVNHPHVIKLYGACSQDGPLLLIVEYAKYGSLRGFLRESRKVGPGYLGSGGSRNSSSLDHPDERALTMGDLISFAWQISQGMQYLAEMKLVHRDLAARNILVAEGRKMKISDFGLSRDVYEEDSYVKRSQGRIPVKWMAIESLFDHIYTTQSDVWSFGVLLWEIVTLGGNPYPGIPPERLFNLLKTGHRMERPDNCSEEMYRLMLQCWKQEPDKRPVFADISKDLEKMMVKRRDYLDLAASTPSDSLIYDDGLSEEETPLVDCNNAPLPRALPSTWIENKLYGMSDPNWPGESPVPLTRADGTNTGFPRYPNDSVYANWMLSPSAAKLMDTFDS
Excerpt: Fig 2 ALW-II-41-27, HG-6-63-01 and XMD15-44 chemical structure. A) Chemical structure of the studied compounds: red colour indicates the “tail”, black colour indicates “linker”, and pink colour indicates the “head” part in the binding. B) Modelling of ALW-II-41-27 (left), XMD15-44 (middle) and HG-6-63-01(right) binding to the DFG-out conformation of RET.
Though more rarely than C634 and M918 mutations, other mutations targeting RET residues in the tyrosine kinase domain can cause familial or sporadic MTC [1, 2]. […] Of note, RET A883 residue is located in the VI Hanks domain adjacent to RET activation loop and it corresponds to G372 residue in ABL kinase whose mutation has been isolated in imatinib-resistant patients.

[1] = test system: SHC and MAPK phosphorylation in parental RAT1 cells; test: Western blot of SHC and MAPK phosphorylation in parental RAT1 cells; format: cell-based, rat; details: 2 hr
Method: as §3
(§4) Anti-SHC (#H-108) was from Santa Cruz Biotechnology (Santa Cruz, CA). Anti-RET is a polyclonal antibody raised against the tyrosine kinase protein fragment of human RET [28]. Anti-phospho905 is a phospho-specific polyclonal antibody recognizing RET proteins phosphorylated at Y905 and anti-phospho1062 is a phospho-specific polyclonal antibody recognizing RET proteins phosphorylated at Y1062 [13]. Secondary antibodies coupled to horseradish peroxidase were from Santa Cruz Biotechnology.
EC: extracellular domain; IC: intracellular domain; TM: transmembrane domain.

TPC-1 cells = test: Growth curves, TPC-1 papillary thyroid carcinoma cells (RET/PTC1); format: cell-based; details: Homo sapiens, TPC1; 2% serum; 95% CI in brackets; read-out: Growth inhibition IC50 dose TPC-1
Method: as §1, §2

RET/M918T = RET/M918T (Homo sapiens, UniProt P07949, M918T); test: cell-based; details: NIH3T3, read-out: inhibition of RET/M918T protein
Sequence of RET/M918T (P07949 29-1072 isoform P07949-2 M918T limits assumed): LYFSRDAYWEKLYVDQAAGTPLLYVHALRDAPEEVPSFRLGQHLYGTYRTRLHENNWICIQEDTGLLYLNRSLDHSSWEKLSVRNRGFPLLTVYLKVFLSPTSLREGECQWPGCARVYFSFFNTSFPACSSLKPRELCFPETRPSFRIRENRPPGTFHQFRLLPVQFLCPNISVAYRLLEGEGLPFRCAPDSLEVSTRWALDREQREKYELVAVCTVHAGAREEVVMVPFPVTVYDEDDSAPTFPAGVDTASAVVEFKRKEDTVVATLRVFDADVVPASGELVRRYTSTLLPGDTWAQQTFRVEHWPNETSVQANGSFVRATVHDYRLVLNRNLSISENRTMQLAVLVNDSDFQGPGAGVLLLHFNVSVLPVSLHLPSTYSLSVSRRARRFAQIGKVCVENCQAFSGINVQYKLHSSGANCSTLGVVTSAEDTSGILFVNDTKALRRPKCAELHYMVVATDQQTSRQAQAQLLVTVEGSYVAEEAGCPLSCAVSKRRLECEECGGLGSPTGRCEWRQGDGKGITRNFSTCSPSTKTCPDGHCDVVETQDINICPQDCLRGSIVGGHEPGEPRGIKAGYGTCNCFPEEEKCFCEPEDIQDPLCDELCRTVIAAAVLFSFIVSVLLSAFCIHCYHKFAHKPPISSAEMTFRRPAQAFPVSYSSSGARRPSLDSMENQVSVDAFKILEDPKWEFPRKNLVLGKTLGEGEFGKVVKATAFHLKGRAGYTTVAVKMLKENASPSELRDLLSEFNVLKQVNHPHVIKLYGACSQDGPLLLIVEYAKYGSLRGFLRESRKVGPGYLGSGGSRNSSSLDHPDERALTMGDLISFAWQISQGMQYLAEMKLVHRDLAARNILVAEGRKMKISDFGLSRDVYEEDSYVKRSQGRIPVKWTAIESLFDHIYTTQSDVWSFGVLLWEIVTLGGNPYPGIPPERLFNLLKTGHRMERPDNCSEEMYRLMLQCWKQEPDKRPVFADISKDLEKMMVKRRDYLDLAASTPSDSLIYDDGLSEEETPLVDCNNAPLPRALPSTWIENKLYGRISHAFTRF

RAT RET/M918T cells = test: Growth curves, RAT1 cells transformed by RET/M918T; format: cell-based; details: low serum, last day values, 95% CI in brackets, read-out: Growth inhibition IC50 dose: RAT RET/M918T
Method: as §2

[2] = test system: SHC and MAPK phosphorylation in Nthy-ori-3-1 cells; test: Western blot of SHC and MAPK phosphorylation in Nthy-ori-3-1 cells; format: cell-based, human; details: 10, 100 and 1,000 nM, 2 hr
Method: as §3, §4
We selected TT and MZ-CRC-1 cells, that derive from human MTC harbouring the RET/C634W or RET/M918T mutation, respectively, and TPC1 cells, that derive from human PTC bearing the RET/PTC1 (CCDC6-RET) rearrangement. […] Concentrations as low at 10 nM of all three drugs inhibited RET autophosphorylation as well as SHC and MAPK activation by 20–40% of control (Fig 4A–4C). […]

RET/C634Y = details: 10 nM, 2 hr, NIH3T3, Western blotting, data not shown

T1 sequence (Q8N568 whole entry): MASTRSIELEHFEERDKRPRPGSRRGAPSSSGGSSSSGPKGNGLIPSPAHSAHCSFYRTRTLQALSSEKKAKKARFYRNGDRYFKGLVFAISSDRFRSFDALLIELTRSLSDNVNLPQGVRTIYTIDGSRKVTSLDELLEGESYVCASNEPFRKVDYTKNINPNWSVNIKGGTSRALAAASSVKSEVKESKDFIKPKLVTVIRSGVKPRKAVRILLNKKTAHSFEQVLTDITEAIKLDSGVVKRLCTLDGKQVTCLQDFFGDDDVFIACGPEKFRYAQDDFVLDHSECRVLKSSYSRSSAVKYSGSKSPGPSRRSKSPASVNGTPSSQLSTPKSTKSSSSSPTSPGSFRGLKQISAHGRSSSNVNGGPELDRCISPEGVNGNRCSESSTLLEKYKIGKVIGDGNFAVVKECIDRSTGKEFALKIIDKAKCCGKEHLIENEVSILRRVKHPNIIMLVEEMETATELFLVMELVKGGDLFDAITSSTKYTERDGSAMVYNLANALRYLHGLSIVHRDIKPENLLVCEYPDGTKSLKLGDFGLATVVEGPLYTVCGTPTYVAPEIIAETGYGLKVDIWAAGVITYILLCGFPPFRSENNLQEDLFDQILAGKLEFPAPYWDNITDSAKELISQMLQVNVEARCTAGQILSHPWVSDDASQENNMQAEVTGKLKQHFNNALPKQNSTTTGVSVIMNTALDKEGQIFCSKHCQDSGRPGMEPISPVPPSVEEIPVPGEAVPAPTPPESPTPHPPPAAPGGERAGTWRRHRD

Row | SMILES | remaining binding at 10 µM (KinomeScan kinase panel) [%] | IC50 (MZ-CRC-1 cells) [nM] | IC50 (TT cells) [nM] | inhibition of VEGFRII phosphorylation in living TT cells (VEGFRII) | IC50 (wt RET) [nM] | effect on SHC and MAPK phosphorylation in parental RAT1 cells [1] | IC50 (TPC-1 cells) [nM] | inhibition at 0.01 µM (RET/M918T) [%] | IC50 (RAT RET/M918T cells) [nM] | effect on SHC and MAPK phosphorylation in Nthy-ori-3-1 cells [2] | inhibition of RET/C634Y protein (RET/C634Y) [%]
1 | CCN1CCN(Cc2ccc(NC(=O)c3ccc(C)c(NC(=O)c4cncc(-c5cccs5)c4)c3)cc2C(F)(F)F)CC1 [ALW-II-41-27] | > 30 | 2 | 5.7 | able to inhibit | 24.7 | did not affect | 19.7 | > 30 | 56 | did not exert any detectable effects | > 30
2 | CCN1CCN(Cc2ccc(NC(=O)c3ccc(C)c(/C=C/c4cnc5[nH]ccc5c4Cl)c3)cc2C(F)(F)F)CC1 [HG-6-63-01, (E)-3-(2-(4-chloro-1H-pyrrolo[2,3-b]pyridin-5-yl)vinyl)-N-(4-((4-ethylpiperazin-1-yl)methyl)-3-(trifluoromethyl)phenyl)-4-methylbenzamide] | > 30 | 1 | 2.3 | able to inhibit | 35.3 | did not affect | 9.8 | > 30 | 16 | did not exert any detectable effects | > 30
3 | CCN1CCN(Cc2ccc(NC(=O)c3ccc(C)c(C#Cc4cccnc4)c3)cc2C(F)(F)F)CC1 [XMD15-44] | > 30 | 4.2 | 1.5 | able to inhibit | 14.2 | did not affect | 37.1 | > 30 | 8.3 | did not exert any detectable effects | > 30
